Drawing on ChEMBL document CHEMBL1125793 (J Med Chem, 1991), this text covers IC50 for 29 compounds.

The target of one experiment is T1, Angiotensin II receptor (Rattus norvegicus, UniProt P29089+P25095+P35351).
T1 sequence (P29089 whole entry): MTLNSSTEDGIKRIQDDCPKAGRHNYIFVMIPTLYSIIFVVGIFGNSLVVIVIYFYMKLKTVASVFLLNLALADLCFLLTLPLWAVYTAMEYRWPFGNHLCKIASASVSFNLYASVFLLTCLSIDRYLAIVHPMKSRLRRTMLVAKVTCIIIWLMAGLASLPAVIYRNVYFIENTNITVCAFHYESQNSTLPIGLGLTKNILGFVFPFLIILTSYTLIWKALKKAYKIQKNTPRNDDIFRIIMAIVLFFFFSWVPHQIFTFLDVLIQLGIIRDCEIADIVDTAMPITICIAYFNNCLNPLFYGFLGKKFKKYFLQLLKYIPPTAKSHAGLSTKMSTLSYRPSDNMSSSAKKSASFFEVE
T1 sequence (P25095 whole entry): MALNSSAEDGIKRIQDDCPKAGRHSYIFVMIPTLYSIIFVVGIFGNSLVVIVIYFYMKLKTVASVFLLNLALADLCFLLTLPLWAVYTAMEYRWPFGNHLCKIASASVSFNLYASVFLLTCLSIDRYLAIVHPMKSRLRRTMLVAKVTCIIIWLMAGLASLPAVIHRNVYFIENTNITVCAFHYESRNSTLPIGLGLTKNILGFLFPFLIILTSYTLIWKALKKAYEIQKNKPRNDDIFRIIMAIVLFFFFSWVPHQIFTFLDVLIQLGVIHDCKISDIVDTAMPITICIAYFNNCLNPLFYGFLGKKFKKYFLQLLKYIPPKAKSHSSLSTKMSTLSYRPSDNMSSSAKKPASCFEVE
T1 sequence (P35351 whole entry): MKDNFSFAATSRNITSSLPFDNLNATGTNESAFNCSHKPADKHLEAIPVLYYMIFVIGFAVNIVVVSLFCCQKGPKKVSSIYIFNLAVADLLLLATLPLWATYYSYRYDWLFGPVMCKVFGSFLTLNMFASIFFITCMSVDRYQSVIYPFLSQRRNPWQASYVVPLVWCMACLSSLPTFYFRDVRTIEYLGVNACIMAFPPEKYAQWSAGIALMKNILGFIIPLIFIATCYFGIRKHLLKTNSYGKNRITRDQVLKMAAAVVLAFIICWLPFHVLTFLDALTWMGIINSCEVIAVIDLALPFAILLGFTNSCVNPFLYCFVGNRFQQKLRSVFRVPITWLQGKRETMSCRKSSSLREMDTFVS
The experiment in a line: Binding affinity against Angiotensin II receptor, from rat adrenal gland. The format is tissue-based.
In general, IC50 refers to the concentration that inhibits the measured activity by half. The low end stands for greater potency in that assay, the high end for weaker potency in that assay. The compound `O=C(O)C1Cc2c(ncn2Cc2ccccc2)CN1C(=O)C(c1ccc(Cl)cc1)c1ccc(Cl)cc1` (configuration not stated) returned an IC50 of 6.8 µM.

Take `Cc1cccc(Cn2cnc3c2C[C@@H](C(=O)O)N(C(=O)C(c2ccccc2)c2ccccc2)C3)c1`: the IC50 was 0.15 µM.

Regarding `COc1ccc(Cn2cnc3c2CC(CO)N(C(=O)C(c2ccccc2)c2ccccc2)C3)cc1C` (configuration not stated), the IC50 stood at 0.37 µM.

Compound `CC(=O)Nc1ccc(Cn2cnc3c2C[C@@H](C(=O)O)N(C(=O)C(c2ccccc2)c2ccccc2)C3)cc1` came in with an IC50 of 0.35 µM.

For `O=C(O)[C@@H]1Cc2c(ncn2CCC2CCCCC2)CN1C(=O)C(c1ccccc1)c1ccccc1`, the IC50 stood at 0.24 µM.

For the compound `COc1ccc(Cn2cnc3c2C[C@@H](C(=O)O)N(C(=O)N(C)c2ccccc2)C3)cc1C`, the IC50 was 0.14 µM.

With `O=C(O)C1Cc2c(ncn2Cc2ccccc2)CN1S(=O)(=O)Cc1ccccc1` (configuration not stated), the IC50 is 19 µM.

Compound `O=C(C(c1ccccc1)C1CCCC1)N1Cc2ncn(Cc3ccccc3)c2CC1CO` (configuration not stated) showed an IC50 of 6.7 µM.

In the case of `COC(=O)C1Cc2c(ncn2Cc2ccccc2)CN1C(=O)C(c1ccccc1)c1ccccc1` (configuration not stated), the IC50 was 8.8 µM.

As for `O=C(O)[C@@H]1Cc2c(ncn2CCc2ccccc2)CN1C(=O)C(c1ccccc1)c1ccccc1`, the IC50 worked out at 0.24 µM.

`COc1ccc(Cn2cnc3c2CC(CO)N(C(=O)N(C)c2ccccc2)C3)cc1C` (configuration not stated): the IC50 was found to be 0.52 µM.

As to `Cc1ccc(Cn2cnc3c2C[C@@H](C(=O)O)N(C(=O)C(c2ccccc2)c2ccccc2)C3)cc1C`, the IC50 was found to be 0.3 µM.

As to `O=C(O)C1Cc2c(ncn2Cc2ccccc2)CN1C(=O)CCc1ccccc1` (configuration not stated), the half-inhibitory concentration (IC50) was 13 µM.

`COc1ccc(Cn2cnc3c2C[C@@H](C(=O)O)N(C(=O)C(C)c2ccccc2)C3)cc1C` (some centres not stated) had an IC50 of 0.56 µM.

`COc1ccc(Cn2cnc3c2C[C@@H](C(=O)O)N(C(=O)C(c2ccccc2)c2ccccc2)C3)cc1OC`: the IC50 stood at 0.098 µM.

As for `COc1ccc(Cn2cnc3c2C[C@@H](C(=O)O)N(C(=O)CC(c2ccccc2)c2ccccc2)C3)cc1C`, the IC50 came to 4.2 µM.

`COc1cccc(Cn2cnc3c2C[C@@H](C(=O)O)N(C(=O)C(c2ccccc2)c2ccccc2)C3)c1` returned an IC50 of 0.12 µM.

The compound `COc1ccc(Cn2cnc3c2C[C@@H](C(=O)O)N(C(=O)C(c2ccccc2)c2ccccc2)C3)cc1C` returned a half-maximal inhibitory concentration (IC50) of 0.07 µM.

Regarding `CCN(CC)c1ccc(Cn2cnc3c2C[C@@H](C(=O)O)N(C(=O)C(c2ccccc2)c2ccccc2)C3)cc1`, the IC50 is 0.29 µM.

The compound `O=C(O)C1Cc2c(ncn2Cc2ccccc2)CN1C(=O)Nc1ccccc1` (configuration not stated) gave an IC50 of 2.1 µM.

Compound `COc1ccc(Cn2cnc3c2CCN(C(=O)C(c2ccccc2)c2ccccc2)C3)cc1C` gave an IC50 of 4.4 µM.

As for `O=C(O)C1Cc2c(ncn2Cc2ccccc2)CN1C(=O)Cc1ccccc1` (stereo in doubt; 14a), the IC50 was found to be 0.74 µM.

For `COc1ccc(Cn2cnc3c2C[C@@H](C(=O)O)N(C(=O)C(c2ccccc2)C2CCCCC2)C3)cc1C` (some centres not stated), the IC50 was found to be 0.085 µM.

As for `O=C(O)C1Cc2c(ncn2Cc2ccccc2)CN1C(=O)Oc1ccccc1` (configuration not stated), the IC50 was 4.6 µM.

Turning to `O=C(O)C1Cc2c(ncn2Cc2ccccc2)CN1C(=O)CC(c1ccccc1)c1ccccc1` (configuration not stated), the IC50 was determined as 1.2 µM.

`O=C(O)[C@@H]1Cc2c(ncn2Cc2cccnc2)CN1C(=O)C(c1ccccc1)c1ccccc1` returned an IC50 of 0.12 µM.

Consider `COc1ccc(Cn2cnc3c2C[C@@H](C(=O)O)N(C(=O)C(c2ccc(Cl)cc2)c2ccc(Cl)cc2)C3)cc1C`, for which the IC50 was found to be 2.4 µM.

Consider `Nc1ccc(C(C(=O)N2Cc3ncn(Cc4ccccc4)c3CC2C(=O)O)c2ccc(N)cc2)cc1` (configuration not stated), for which the half-inhibitory concentration (IC50) was 8.4 µM.

Compound `COc1ccc(Cn2cnc3c2C[C@@H](C(=O)O)N(C(=O)C(c2ccccc2)c2ccccc2)C3)cc1F` gave an IC50 of 0.26 µM.

In another experiment the target is T1, Angiotensin II receptor. As to the kind of experiment: Binding affinity for rat brain Angiotensin II receptor.
In the case of `O=C(O)C1Cc2c(ncn2Cc2ccccc2)CN1C(=O)C(c1ccc(Cl)cc1)c1ccc(Cl)cc1` (configuration not stated), the IC50 came out at 8.2 µM.

For the compound `Cc1cccc(Cn2cnc3c2C[C@@H](C(=O)O)N(C(=O)C(c2ccccc2)c2ccccc2)C3)c1`, the IC50 was found to be 1.6 µM.

In the case of `COc1ccc(Cn2cnc3c2CC(CO)N(C(=O)C(c2ccccc2)c2ccccc2)C3)cc1C` (configuration not stated), the half-maximal inhibitory concentration (IC50) stood at 0.13 µM.
